Experiment: xn = mol fraction of the nth substance listed
Conditions: 101 kPa

CCOS(=O)(=O)[O-].CC[n+]1ccn(C)c1 + COCCO
speed of sound [m/s]
Conditions	298.15 K	308.15 K	318.15 K	328.15 K
x1 = 0.049	1381	–	1316.1	1282.9
x1 = 0.0819	1403	–	1340.4	1308
x1 = 0.1453	1441	1412	1381.9	–
x1 = 0.1765	1457.4	1429	1399.5	1369.2
x1 = 0.2557	1494.5	–	1438.7	1410
x1 = 0.3386	–	1500.6	1472.9	–
x1 = 0.4472	–	1537.2	1510.3	1484.3
x1 = 0.5453	1592.2	1565.7	1539.3	1514.2
x1 = 0.6466	1617.7	–	1565.9	1541.3
x1 = 0.7562	1641.6	–	1591.4	1567
x1 = 0.8206	1654	1629.2	1604.6	1580.4
x1 = 0.8868	–	1641	–	–
x1 = 0.951	1674.9	1650.6	1626.6	1602.8
x1 = 1	1680.8	1656.4	–	1608.9

COCCO + CCOS(=O)(=O)[O-].CC[n+]1ccn(C)c1
x2 = 0
Conditions	speed of sound [m/s]
298.15 K	1344
308.15 K	1309.2
318.15 K	1274.5
328.15 K	1240.1

Source: a compilation of properties of binary mixtures (doi:10.1007/s10953-016-0465-y)
